± gives the expanded uncertainty stated by the source.
Test: xn = mol fraction of the nth substance listed
Details: for viscosity / mass density / speed of sound: 102 kPa, Liquid; for viscosity: Concentric cylinders viscometry; for mass density: Vibrating tube method; for speed of sound: Frequency=3 MHz, Single path-length method; for surface tension liquid-gas: 294 K, Pendant drop shape

CC(CC(C)(C)C)CC(C)(C)C [2,2,4,6,6-pentamethylheptane] + CCCCCCc1ccccc1
Details	mass density [kg/m3]	speed of sound [m/s]	viscosity [mPa·s]
253.15 K, x2 = 0.1	784.1 ± 2	–	3 ± 0.06
253.15 K, x2 = 0.2065	795 ± 2	–	3.03 ± 0.06
253.15 K, x2 = 0.3009	804.9 ± 2	–	3.08 ± 0.06
253.15 K, x2 = 0.3968	815.2 ± 2	–	3.19 ± 0.06
253.15 K, x2 = 0.5001	826.8 ± 2	–	–
253.15 K, x2 = 0.5004	–	–	3.31 ± 0.06
253.15 K, x2 = 0.6	838.5 ± 2	–	3.47 ± 0.06
253.15 K, x2 = 0.6998	850.5 ± 2	–	3.7 ± 0.07
253.15 K, x2 = 0.7997	863.5 ± 2	–	3.93 ± 0.07
253.15 K, x2 = 0.8999	875.7 ± 2	–	4.2 ± 0.07
288.15 K, x2 = 0.1	758.47 ± 0.73	1238.9 ± 1.1	–
288.15 K, x2 = 0.2065	769.17 ± 0.73	1255.2 ± 1.1	–
288.15 K, x2 = 0.3009	778.97 ± 0.73	1270.3 ± 1.2	–
288.15 K, x2 = 0.3968	789.42 ± 0.73	1286.2 ± 1.2	–
288.15 K, x2 = 0.5001	800.56 ± 0.74	–	–
288.15 K, x2 = 0.5004	–	1302.9 ± 1.2	–
288.15 K, x2 = 0.6	812.08 ± 0.74	1320.1 ± 1.2	–
288.15 K, x2 = 0.6998	824 ± 0.74	1338 ± 1.3	–
288.15 K, x2 = 0.7997	836.31 ± 0.74	1356.4 ± 1.3	–
288.15 K, x2 = 0.8999	849.13 ± 0.75	1375.5 ± 1.3	–
293.15 K, x2 = 0.1	754.83 ± 0.73	1219 ± 1.1	1.31 ± 0.02
293.15 K, x2 = 0.2065	765.51 ± 0.73	1235.7 ± 1.1	1.31 ± 0.02
293.15 K, x2 = 0.3009	775.3 ± 0.73	1250.6 ± 1.2	1.31 ± 0.02
293.15 K, x2 = 0.3968	785.5 ± 0.73	1266 ± 1.2	1.35 ± 0.02
293.15 K, x2 = 0.5001	796.87 ± 0.74	–	–
293.15 K, x2 = 0.5004	–	1283.3 ± 1.2	1.36 ± 0.02
293.15 K, x2 = 0.6	808.37 ± 0.74	1300.6 ± 1.2	1.4 ± 0.02
293.15 K, x2 = 0.6998	820.27 ± 0.74	1318.6 ± 1.3	1.46 ± 0.02
293.15 K, x2 = 0.7997	832.57 ± 0.74	1337.1 ± 1.3	1.51 ± 0.03
293.15 K, x2 = 0.8999	845.36 ± 0.75	1356.2 ± 1.3	1.56 ± 0.02
303.15 K, x2 = 0.1	747.53 ± 0.73	1180 ± 1.1	1.12 ± 0.02
303.15 K, x2 = 0.2065	758.19 ± 0.73	1197.2 ± 1.1	1.13 ± 0.02
303.15 K, x2 = 0.3009	767.96 ± 0.73	1211.8 ± 1.2	1.14 ± 0.02
303.15 K, x2 = 0.3968	778.14 ± 0.73	1227.4 ± 1.2	1.15 ± 0.02
303.15 K, x2 = 0.5001	789.48 ± 0.74	–	–
303.15 K, x2 = 0.5004	–	1244.8 ± 1.2	1.17 ± 0.02
303.15 K, x2 = 0.6	800.94 ± 0.74	1262.2 ± 1.2	1.2 ± 0.02
303.15 K, x2 = 0.6998	812.8 ± 0.74	1280.3 ± 1.3	1.25 ± 0.02
303.15 K, x2 = 0.7997	825.06 ± 0.74	1299 ± 1.3	1.29 ± 0.02
303.15 K, x2 = 0.8999	837.82 ± 0.75	1318.2 ± 1.3	1.33 ± 0.02
313.15 K, x2 = 0.1	740.2 ± 0.73	1141.9 ± 1.1	0.957 ± 0.021
313.15 K, x2 = 0.2065	750.84 ± 0.73	1159.3 ± 1.1	0.962 ± 0.021
313.15 K, x2 = 0.3009	760.6 ± 0.73	1174 ± 1.2	0.967 ± 0.022
313.15 K, x2 = 0.3968	770.75 ± 0.73	1189.7 ± 1.2	0.979 ± 0.022
313.15 K, x2 = 0.5001	782.06 ± 0.74	–	–
313.15 K, x2 = 0.5004	–	1207.2 ± 1.2	1 ± 0.02
313.15 K, x2 = 0.6	793.5 ± 0.74	1224.7 ± 1.2	1.02 ± 0.02
313.15 K, x2 = 0.6998	805.33 ± 0.74	1243 ± 1.3	1.06 ± 0.02
313.15 K, x2 = 0.7997	817.55 ± 0.74	1261.7 ± 1.3	1.09 ± 0.02
313.15 K, x2 = 0.8999	830.26 ± 0.75	1281 ± 1.3	1.12 ± 0.02
323.15 K, x2 = 0.1	732.84 ± 0.73	1104.7 ± 1.1	0.848 ± 0.021
323.15 K, x2 = 0.2065	743.45 ± 0.73	1122.2 ± 1.1	0.853 ± 0.021
323.15 K, x2 = 0.3009	753.21 ± 0.73	1136.9 ± 1.2	0.861 ± 0.021
323.15 K, x2 = 0.3968	763.34 ± 0.73	1152.8 ± 1.2	0.873 ± 0.021
323.15 K, x2 = 0.5001	774.63 ± 0.74	–	–
323.15 K, x2 = 0.5004	–	1170.4 ± 1.2	0.889 ± 0.021
323.15 K, x2 = 0.6	786.03 ± 0.74	1188.1 ± 1.2	0.911 ± 0.021
323.15 K, x2 = 0.6998	797.82 ± 0.74	1206.4 ± 1.3	0.943 ± 0.022
323.15 K, x2 = 0.7997	810.01 ± 0.74	1225.2 ± 1.3	0.964 ± 0.022
323.15 K, x2 = 0.8999	822.68 ± 0.75	1244.6 ± 1.3	0.992 ± 0.022
333.15 K, x2 = 0.1	725.44 ± 0.73	1068.5 ± 1.1	0.749 ± 0.021
333.15 K, x2 = 0.2065	736.04 ± 0.73	1085.8 ± 1.1	0.753 ± 0.021
333.15 K, x2 = 0.3009	745.77 ± 0.73	1101 ± 1.2	0.758 ± 0.021
333.15 K, x2 = 0.3968	755.89 ± 0.73	1117 ± 1.2	0.768 ± 0.021
333.15 K, x2 = 0.5001	767.15 ± 0.74	–	–
333.15 K, x2 = 0.5004	–	1134.6 ± 1.2	0.783 ± 0.021
333.15 K, x2 = 0.6	778.54 ± 0.74	1152.5 ± 1.2	0.803 ± 0.021
333.15 K, x2 = 0.6998	790.29 ± 0.74	1170.8 ± 1.3	0.828 ± 0.021
333.15 K, x2 = 0.7997	802.45 ± 0.74	1189.6 ± 1.3	0.844 ± 0.021
333.15 K, x2 = 0.8999	815.08 ± 0.75	1209.1 ± 1.3	0.87 ± 0.021

Details	surface tension liquid-gas [mN/m]
x2 = 0.1	21.9 ± 0.3
x2 = 0.2065	22.5 ± 0.3
x2 = 0.3009	23.1 ± 0.3
x2 = 0.3968	23.5 ± 0.3
x2 = 0.5001	24.1 ± 0.4
x2 = 0.6	24.7 ± 0.3
x2 = 0.6998	25.5 ± 0.4
x2 = 0.7997	26.5 ± 0.4
x2 = 0.8999	27.7 ± 0.4

From the NIST ThermoML archive (doi:10.1021/acs.jced.8b00387)
